# Measured values as given in patent US7371766B2, “Curcumin analogs with anti-tumor and anti-angiogenic properties” (Emory University, priority 1999, dated 2008).
# Like-named read-outs stand apart in the source and are kept apart here.
# Tests used:
# [1] = tested on: Tissue Factor (TF) production by human prostate cancer cell line DU-145; test: TF ELISA, DU-145; format: cell-based; conditions: 20 μM; for TF (% of DMSO): DMSO = 100%; for TF: mean of triplicate and S.D., DMSO 7699 ± 406
# Procedure: (§1) Cells were treated with 1% Triton X-100 in PBS and left overnight at 4° C. overnight to solubilize TF. […] IMUBIND Tissue Factor ELISA Kit (American Diagnostica Inc, Greenwich, Conn.) was used to determine TF concentration in each sample. The ELISA was carried out according to manufacturer's procedure.
# [2] = tested on: Tissue Factor (TF) production by human prostate cancer cell line PC-3; test: TF ELISA, PC-3; format: cell-based; conditions: 20 μM; for TF (% of DMSO): DMSO = 100%; for TF: mean of triplicate and S.D., DMSO 203 ± 6
# Procedure: as §1
# [3] = tested on: Vascular Endothelial Growth Factor (VEGF) production by human prostate cancer cell line PC-3; test: VEGF ELISA, PC-3; format: cell-based; conditions: for VEGF (% of DMSO): DMSO = 100%
# [4] = tested on: Vascular Endothelial Growth Factor (VEGF) production by human prostate cancer cell line DU-145; test: VEGF ELISA, DU-145; format: cell-based; conditions: for VEGF (% of DMSO): DMSO = 100%
# [5] = tested on: Vascular Endothelial Growth Factor (VEGF) production by human melanoma cell line RPMI-7951; test: VEGF ELISA, RPMI-7951; conditions: for activity at 5 µM / activity at 20 µM: Homo sapiens, RPMI-7951, 72 h, read-out: VEGF; for VEGF ELISA / VEGF: RPMI-7951; for VEGF ELISA: DMSO control 3713
# RPMI-7951 human melanoma = test: Neutral Red Assay, cell viability, RPMI-7951; conditions: for viability at 5 µM / viability at 20 µM: Homo sapiens; for Cell Viability / Neutral Red Uptake, %: RPMI-7951; for Cell Viability: DMSO = 100; for Neutral Red Uptake, %: 72 hours
# [6] = tested on: Tissue Factor (TF) production by human melanoma cell line RPMI-7951; test: TF ELISA, RPMI-7951; format: cell-based
# Procedure: IMUBIND Tissue Factor ELISA Kit (American Diagnostica Inc, Greenwich, Conn.) was used to determine TF concentration in each sample. The ELISA was carried out according to manufacturer's procedure.
# HUVECS = test: Emory Laboratory Cell Screen, Neutral Red, HUVECS; format: cell-based, human; conditions: 72 hours, read-out: Median Growth Inhibitory Concentration (GI50)
# Procedure: (§2) Human tumor and endothelial cell lines were treated for 72 hours with compounds at a minimum of four concentrations between 0.1 μM-40 μM. Neutral Red assay was used to calculate cell viability.
# RPMI 7951 = test: Emory Laboratory Cell Screen, Neutral Red, RPMI 7951; format: cell-based, human; conditions: RPMI 7951, Melanoma, 72 hours, read-out: Median Growth Inhibitory Concentration (GI50)
# Procedure: as §2
# MDA-MB-231 = test: Emory Laboratory Cell Screen, Neutral Red, MDA-MB-231; format: cell-based, human; conditions: MDA-MB-231, Breast Cancer, 72 hours, read-out: Median Growth Inhibitory Concentration (GI50)
# Procedure: as §2
# MDA-MB-435 = test: Emory Laboratory Cell Screen, Neutral Red, MDA-MB-435; format: cell-based, human; conditions: MDA-MB-435, Breast Cancer, 72 hours, read-out: Median Growth Inhibitory Concentration (GI50)
# Procedure: as §2
# [7] = tested on: Human tumor and endothelial cell lines; test: Emory Laboratory Cell Screen, mean over cell lines; format: cell-based; conditions: Mean over the Emory cell lines, 72 hours, read-out: Median Growth Inhibitory Concentration (GI50), Mean
# Procedure: as §2
# [8] = 20 μM, mean of triplicate and S.D., DMSO 2103 ± 100
# [9] = Table 4, 20 μM, mean of triplicate and S.D.
# [10] = 20 μM, mean of triplicate and S.D., DMSO 18760 ± 2633
# [11] = 5 μM, DMSO control 4197 (EF-25: 1045)
# [12] = RPMI-7951, 72 h, read-out: Neutral Red Uptake, %
# [13] = RPMI-7951, read-out: Cell Viability
# [14] = Table 5, 5 μM, DMSO control 7054
# [15] = Table 5, 20 μM, DMSO control 7054
Structure (SMILES),GI50 [7] [nM],VEGF (% of DMSO) ([3]; 20 μM),"VEGF [3, 8] [pg/mL]","VEGF ([3]; Table 4, 20 μM, DMSO = 100) [%]","VEGF [3, 9] [pg/mL]",VEGF (% of DMSO) ([4]; 20 μM),"VEGF [4, 10] [pg/mL]","VEGF ([4]; Table 4, 20 μM, DMSO = 100) [%]","VEGF [4, 9] [pg/mL]",VEGF ELISA ([5]; 5 μM) [pg/ml/well],"VEGF [5, 11] [pg/mL]",VEGF ELISA ([5]; 20 μM) [pg/ml/well],"VEGF ([5]; 20 μM, DMSO control 4197) [pg/mL]","TF ([6]; 5 μM, DMSO = 100) [%]","TF [6, 14] [pg/mL]","VEGF ([5]; 20 μM, DMSO = 100) [%]",Cell Viability (RPMI-7951 human melanoma; 20 μM) [%],GI50 (HUVECS) [nM],GI50 (RPMI 7951) [nM],"VEGF ([5]; 5 μM, DMSO = 100) [%]",also measured
"O=C(C=Cc1ccc(O)cc1)C=Cc1ccc(O)cc1 [EF1, 1,5-Bis(4-hydroxyphenyl)penta-1,4-dien-3-one]",–,(15%),325 ± 75,15,325 ± 75,(105%),19616 ± 4624,105,19616 ± 4624,1923,2573,234,0,–,–,–,–,–,–,–,TF (% of DMSO) [1]: (167%); TF [1]: 12879 ± 149 pg/mL; TF (% of DMSO) [2]: (53%); TF [2]: 107 ± 9 pg/mL; activity at 5 µM [5]: 61%; activity at 20 µM [5]: 0%; viability at 5 µM (RPMI-7951 human melanoma; [12]): 92%; viability at 20 µM (RPMI-7951 human melanoma; [12]): 8%; viability at 5 µM (RPMI-7951 human melanoma; [13]): 98%; viability at 20 µM (RPMI-7951 human melanoma; [13]): 43%
COc1cc(CC2CCCC(Cc3ccc(O)c(OC)c3)C2=O)ccc1O (stereo not drawn) [Compound A231U],–,(47%),984 ± 349,47,984 ± 349,(149%),27875 ± 4446,149,27875 ± 4446,–,–,–,–,78,5473,34,80,–,–,–,"TF ([6]; 20 μM, DMSO = 100): 85%; TF [6, 15]: 5981 pg/mL"
"O=C(C=Cc1cccc(O)c1)C=Cc1cccc(O)c1 [EF3, 1,5-Bis(3-hydroxyphenyl)penta-1,4-dien-3-one]",–,(44%),917 ± 261,44,917 ± 261,(138%),25901 ± 620,149,25901 ± 620,2092,2827,230,0,–,–,–,–,–,–,–,TF (% of DMSO) [1]: (87%); TF [1]: 6687 ± 188 pg/mL; TF (% of DMSO) [2]: (69%); TF [2]: 140 ± 8 pg/mL; activity at 5 µM [5]: 67%; activity at 20 µM [5]: 0%; viability at 5 µM (RPMI-7951 human melanoma; [12]): 77%; viability at 20 µM (RPMI-7951 human melanoma; [12]): 8%; viability at 5 µM (RPMI-7951 human melanoma; [13]): 88%; viability at 20 µM (RPMI-7951 human melanoma; [13]): 43%
"CN1CC(=Cc2ccccc2O)C(=O)C(=Cc2ccccc2O)C1 [EF34, 3,5-Bis(2-hydroxybenzylidene)1-methyl4-piperidone]",–,–,–,–,–,–,–,–,–,–,–,–,–,–,–,–,–,–,–,–,"GI50 (MDA-MB-231; Homo sapiens): 800 nM; GI50 ([7]; Homo sapiens, Endothelial cell): 800 nM"
"COc1ccc(CCC(=O)CCc2ccc(OC)c(OC)c2)cc1OC [MD279U, 1,5-Bis(3,4-dimethoxyphenyl)penta-3-one]",–,–,–,–,–,–,–,–,–,2511,1197,779,1179,102,7200,18,113,–,–,28,"TF ELISA ([6]; 5 μM, DMSO control 7054): 7200 pg/ml/well; TF ([6]; 20 μM, DMSO = 100): 75%; TF ELISA ([6]; 20 μM, DMSO control 7054): 5316 pg/ml/well; TF [6, 15]: 5316 pg/mL; Neutral Red Uptake, % (RPMI-7951 human melanoma; 5 μM): 100 % of control; Cell Viability (RPMI-7951 human melanoma; 5 μM): 112%; Neutral Red Uptake, % (RPMI-7951 human melanoma; 20 μM): 100 % of control"
COc1ccc(C=CC(=O)C=Cc2ccc(OC)cc2)cc1 [BA-4],–,–,–,–,–,–,–,–,–,–,4708,–,3348,100,7043,80,84,–,–,112,"TF ([6]; 20 μM, DMSO = 100): 30%; TF [6, 15]: 2120 pg/mL; Cell Viability (RPMI-7951 human melanoma; 5 μM): 90%"

# Continued, in another order:
GI50 [7] [nM],Structure (SMILES),VEGF (% of DMSO) ([3]; 20 μM),"VEGF [3, 8] [pg/mL]","VEGF ([3]; Table 4, 20 μM, DMSO = 100) [%]","VEGF [3, 9] [pg/mL]",VEGF (% of DMSO) ([4]; 20 μM),"VEGF [4, 10] [pg/mL]","VEGF ([4]; Table 4, 20 μM, DMSO = 100) [%]","VEGF [4, 9] [pg/mL]",VEGF ELISA ([5]; 5 μM) [pg/ml/well],"VEGF [5, 11] [pg/mL]",VEGF ELISA ([5]; 20 μM) [pg/ml/well],"VEGF ([5]; 20 μM, DMSO control 4197) [pg/mL]","TF ([6]; 5 μM, DMSO = 100) [%]","TF [6, 14] [pg/mL]","VEGF ([5]; 20 μM, DMSO = 100) [%]",Cell Viability (RPMI-7951 human melanoma; 20 μM) [%],GI50 (HUVECS) [nM],GI50 (RPMI 7951) [nM],"VEGF ([5]; 5 μM, DMSO = 100) [%]",also measured
2100,COc1cc(C=C2CSCC(=Cc3ccc(O)c(OC)c3)C2=O)ccc1O [MD283],–,–,–,–,–,–,–,–,–,–,–,–,–,–,–,–,3100,1400,–,GI50 (MDA-MB-231): 1800 nM; GI50 (MDA-MB-435): 1900 nM
8100,COc1cc(C=C2CCCC(=Cc3ccc(O)c(OC)c3)C2=O)ccc1O [MD10],(29%),611 ± 248,29,611 ± 248,(42%),7830 ± 2262,42,7830 ± 2262,1585,1866,315,0,25,1793,0,42,14000,2200,44,"TF ([6]; 1 μM, DMSO = 100): 113%; TF ([6]; 1 μM, DMSO control 7054): 7966 pg/mL; TF ELISA ([6]; 5 μM, DMSO control 7054): 1793 pg/ml/well; TF (% of DMSO) [1]: (76%); TF [1]: 5886 ± 332 pg/mL; TF (% of DMSO) [2]: (0%); TF [2]: 0 ± 0 pg/mL; Neutral Red Uptake, % (RPMI-7951 human melanoma; 5 μM): 82 % of control; Cell Viability (RPMI-7951 human melanoma; 5 μM): 91%; Neutral Red Uptake, % (RPMI-7951 human melanoma; 20 μM): 6 % of control"
1700,CC(=O)Oc1ccccc1C=CC(=O)C=Cc1ccccc1OC(C)=O [MD286],–,–,–,–,–,–,–,–,–,–,–,–,–,–,–,–,2300,1000,–,–
2900,COc1ccc(/C=C/C(=O)/C=C/c2ccc(OC)c(OC)c2)cc1OC [MD6],(87%),1820 ± 283,87,1820 ± 283,(98%),18428 ± 3377,98,18428 ± 3377,2826,3200,273,30,25,1753,1,42,3800,1900,76,"TF ([6]; 1 μM, DMSO = 100): 91%; TF ([6]; 1 μM, DMSO control 7054): 6400 pg/mL; TF ELISA ([6]; 5 μM, DMSO control 7054): 1753 pg/ml/well; Neutral Red Uptake, % (RPMI-7951 human melanoma; 5 μM): 97 % of control; Cell Viability (RPMI-7951 human melanoma; 5 μM): 101%; Neutral Red Uptake, % (RPMI-7951 human melanoma; 20 μM): 6 % of control"
